“And” between values parts separate entries of the source, which are not always exact repeats. Equal entries are not always repeated.
System: E. coli
Experiment: ETGA (microbial polymerase) qPCR after microbial capture (Magnitor test)
Format: cell-based
Set-up: ETGA results CV: unit not given here
Method: The Magnitor test consists of two microbial detection read-outs: • ETGA: detection of microbial polymerase from intact microbial cells • Confirm: detection of microbial DNA according to gram status (Gram Negative, Gram Positive, or Candida) […]
• E. coli o/n liquid culture 1E-3 dilution spiked into blood broth (6.25 μL o/n per mL: 244 μL o/n+39 mL blood broth) and […] out-growth performed in shaking incubator @ 37° C., 500 rpm • Following 2-hour outgrowth, samples produced by adding 1 mL specimen to 2 mL tube containing buffer (and 15 μL BioEstapor beads (Merck, Cat #BE-M 08/0.3) for Mag Beads sample-set): triplicate E. coli (EC) and No Spike Control (NSC) samples per test condition • 100 μL TVCs performed for NSC and E. coli (including dilutions of specimen to ensure countable plates)
• Samples centrifuged for 3 minutes at 9000×g (tube hinges facing outwards for pellet traceability) • Supernatants removed • 50 μL LM added to samples (approx. 10× pipette mixes to resuspend pellets) • Samples placed in shaking incubator at 900 rpm for 5 minutes and then 800 rpm for 55 minutes (26° C.) • Centrifuge samples at 17000×g for 1 minute before qPCR set-up
• Samples placed in shaking incubator at 900 rpm for 30 minutes (37° C.) • Samples placed on DynaMag-2 magnetic rack for 5 minutes and then supernatants removed • 50 μL LM added to samples (approx. 10× pipette mixes to resuspend pellets) • Samples placed in shaking incubator at 900 rpm for 5 minutes and then 800 rpm for 55 minutes (26° C.) • Magnetise samples for 3 minutes before qPCR set-up Manual qPCR set-up (10 μL reactions) for ETGA mastermix only
• E. coli o/n liquid culture set-up as standard in BacTec PLUS aerobic broth, then following day (approx. 16 hours later) 1.88 μL o/n added to 3 mL broth (equivalent to EC 1E-1 dilution added to broth at 6.25 μL/mL) and 2-hour outgrowth performed at 37° C., 500 rpm. • Following 2-hour outgrowth, E. coli preculture serially diluted (DF10) down to EC 1E-6 in either prewarmed blood-broth (BB), broth only (BO) or 1× buffer (B-BUF or Tris+NaCl). • 100 μL TVCs performed for all E. coli dilutions and NSCs
• 1 mL samples added to 2 mL tubes containing 112 μL of binding buffer (either B-BUF or Tris+NaCl: 10× for BB and BO sample-sets; and 1× for Buffer sample-sets)+15 μL beads (prewashed in respective buffer) • 30 mins shaking (1000 rpm) @ 37° C. • 5 mins magnetisation on DynaMag-2 • All s/n removed • 1 mL WB added and tubes mixed for 2 mins @ RT (1000 rpm) • 5 mins magnetisation on Dynmag-2 • All s/n removed • 50 μL LM added to tubes off magnet (5 μL Polymerase Control (PC) added to each PC sample tube) • ETGA reaction performed: 5 mins at 1000 rpm, then 55 mins at 800 rpm @26° C. • Manual qPCR set-up for ETGA and Confirm (10 μL reactions)
• E. coli o/n liquid cultures set-up as standard in BacTec PLUS aerobic broth (containing SPS) and Nutrient Broth (NB containing no SPS), then the following day (approx. 16 hours later) 1.88 μL o/n added to 3 mL broth (equivalent to EC 1E-1 dilution added to broth at 6.25 μL/mL) for each broth type (NB in morning and PLUS broth in afternoon), and 2-hour outgrowth incubations performed at 37° C., 500 rpm. • For each experiment (NB and PLUS), 1E-1 E. coli preculture diluted down to E. coli 1E-6 (DF10) in each 1× buffer (BUF-1 to BUF-6) • 100 μL TVCs performed using a separate EC dilution set performed in relevant broth (NB or PLUS broth) to prevent plate viability inconsistencies resulting from different 1× buffers […]

## Sodium polyanethol sulfonate [SPS]
WB SPS 0.01 %
  ETGA results Ave. ΔCt: 4.70
  ETGA results CV: 56.59
WB SPS 0.01 %, EC 1-3 replicates, Time ZERO
  ETGA results: 27.90 Ct and 29.12 Ct and 28.14 Ct
WB SPS 0.01 %, NSC 1-3 replicates, NoCt changed to 50 Ct
  ETGA results: 33.39 Ct and 33.06 Ct and 32.81 Ct
WB SPS 0.02 %
  ETGA results Ave. ΔCt: 7.28
  ETGA results CV: 6.16
WB SPS 0.02 %, EC 1-3 replicates, Time ZERO
  ETGA results: 26.41 Ct and 25.88 Ct and 27.24 Ct
WB SPS 0.02 %, NSC 1-3 replicates, NoCt changed to 50 Ct
  ETGA results: 33.20 Ct and 33.77 Ct and 34.41 Ct
WB SPS 0.04 %
  ETGA results Ave. ΔCt: 9.65
  ETGA results CV: 4.40
WB SPS 0.04 %, EC 1-3 replicates, Time ZERO
  ETGA results: 29.31 Ct and 29.43 Ct and 29.70 Ct
WB SPS 0.04 %, NSC 1-3 replicates, NoCt changed to 50 Ct
  ETGA results: 38.93 Ct and 39.93 Ct and 38.54 Ct
WB SPS 0.06 %
  ETGA results Ave. ΔCt: 15.74
  ETGA results CV: 0.02
WB SPS 0.06 %, EC 1-3 replicates, Time ZERO
  ETGA results: 28.70 Ct and 28.50 Ct and 27.62 Ct
WB SPS 0.06 %, NSC 1-3 replicates, NoCt changed to 50 Ct
  ETGA results: 44.62 Ct and 44.11 Ct and 43.30 Ct
WB SPS 0.08 %
  ETGA results Ave. ΔCt: 18.12
  ETGA results CV: 0.01
WB SPS 0.08 %, EC 1-3 replicates, Time ZERO
  ETGA results: 32.31 Ct and 31.94 Ct and 31.40 Ct
WB SPS 0.08 %, NSC 1-3 replicates, NoCt changed to 50 Ct
  ETGA results: 50.00 Ct
WB SPS 0.1 %
  ETGA results Ave. EC: 34.07 Ct
  ETGA results Ave. NSC: 50.00 Ct
  ETGA results Ave. ΔCt: 15.93
  ETGA results CV: 0.02
WB SPS 0.1 %, EC 1-3 replicates, Time ZERO
  ETGA results: 33.76 Ct and 34.37 Ct and 34.08 Ct
WB SPS 0.1 %, NSC 1-3 replicates, NoCt changed to 50 Ct
  ETGA results: 50.00 Ct
